Source: the NIST ThermoML archive (doi:10.1016/j.fluid.2015.03.012)
± gives the expanded uncertainty stated by the source.

Assay: mn = molality of the nth substance listed, in mol/kg
Settings: Survismeter

C[C@H](CCC(=O)[O-])[C@H]1CC[C@H]2[C@@H]3[C@H](O)C[C@@H]4C[C@H](O)CC[C@]4(C)[C@H]3C[C@H](O)[C@]12C.[Na+] [sodium cholate] + O
surface tension liquid-gas [mN/m]
Settings	293.15 K	298.15 K	303.15 K	308.15 K	313.15 K	318.15 K
m1 = 0.001	63.15 ± 0.74	62.55 ± 0.69	61.55 ± 0.81	61.35 ± 0.59	60 ± 0.66	59.45 ± 0.67
m1 = 0.002	61.61 ± 0.67	61.03 ± 0.66	60.07 ± 0.65	59.88 ± 0.64	58.96 ± 0.57	58.1 ± 0.57
m1 = 0.003	60.5 ± 0.59	59.94 ± 0.59	59.01 ± 0.53	58.83 ± 0.58	57.95 ± 0.56	57.45 ± 0.51
m1 = 0.004	59.43 ± 0.61	58.89 ± 0.57	58.33 ± 0.58	57.82 ± 0.59	56.98 ± 0.55	56.5 ± 0.54
m1 = 0.006	57.08 ± 0.58	56.89 ± 0.56	56.04 ± 0.55	55.58 ± 0.55	55.14 ± 0.54	54.69 ± 0.53
m1 = 0.008	55.21 ± 0.5	55.03 ± 0.52	54.52 ± 0.5	54.09 ± 0.5	53.41 ± 0.51	52.99 ± 0.5
m1 = 0.01	54.04 ± 0.49	53.57 ± 0.49	53.09 ± 0.48	52.68 ± 0.47	52.05 ± 0.45	51.65 ± 0.47
m1 = 0.014	51.04 ± 0.44	50.87 ± 0.43	50.43 ± 0.43	50.32 ± 0.43	50.26 ± 0.43	49.42 ± 0.43
m1 = 0.018	50.55 ± 0.4	50.64 ± 0.4	50.2 ± 0.4	49.59 ± 0.4	49.07 ± 0.41	48.73 ± 0.4
m1 = 0.022	50.83 ± 0.4	50.4 ± 0.4	50.22 ± 0.4	49.61 ± 0.4	49.09 ± 0.4	48.75 ± 0.4
m1 = 0.026	50.59 ± 0.4	50.17 ± 0.4	49.99 ± 0.4	49.63 ± 0.4	49.11 ± 0.4	48.77 ± 0.4
m1 = 0.03	50.62 ± 0.4	50.2 ± 0.4	50.26 ± 0.4	49.9 ± 0.4	49.37 ± 0.4	48.56 ± 0.4

C[C@H](CCC(=O)[O-])[C@H]1CC[C@H]2[C@@H]3CC[C@@H]4C[C@H](O)CC[C@]4(C)[C@H]3C[C@H](O)[C@]12C.[Na+] [sodium deoxycholate] + O
surface tension liquid-gas [mN/m]
Settings	293.15 K	298.15 K	303.15 K	308.15 K	313.15 K	318.15 K
m1 = 0.001	58.04 ± 1.2	55.92 ± 1.2	54.2 ± 1.3	54.06 ± 1.1	54.23 ± 1	54.09 ± 1.1
m1 = 0.002	55.17 ± 1	53.25 ± 1	51.68 ± 0.95	51.56 ± 0.95	51.75 ± 0.9	51.62 ± 0.89
m1 = 0.003	53.42 ± 1	51.34 ± 1	49.87 ± 0.93	49.77 ± 0.96	50.21 ± 0.92	50.1 ± 0.79
m1 = 0.004	50.47 ± 1.1	48.6 ± 1.1	47.5 ± 0.84	47.19 ± 0.87	47.62 ± 0.88	48.2 ± 0.83
m1 = 0.005	48.29 ± 0.93	46.35 ± 0.81	46.18 ± 0.62	45.89 ± 0.61	46.32 ± 0.61	46.44 ± 0.72
m1 = 0.006	46.29 ± 0.73	45.1 ± 0.52	45.13 ± 0.52	44.86 ± 0.52	45.29 ± 0.52	45.21 ± 0.57
m1 = 0.007	45.25 ± 0.44	44.7 ± 0.4	44.53 ± 0.41	44.27 ± 0.42	44.69 ± 0.42	44.42 ± 0.43
m1 = 0.009	44.86 ± 0.41	44.51 ± 0.4	44.34 ± 0.4	43.89 ± 0.4	44.11 ± 0.4	44.04 ± 0.4
m1 = 0.011	44.66 ± 0.4	44.32 ± 0.4	44.16 ± 0.4	44.09 ± 0.4	44.31 ± 0.4	44.24 ± 0.4
m1 = 0.013	44.87 ± 0.4	44.53 ± 0.4	44.16 ± 0.4	43.9 ± 0.4	44.32 ± 0.4	44.24 ± 0.4
m1 = 0.015	45.08 ± 0.4	44.73 ± 0.4	44.17 ± 0.4	44.1 ± 0.4	44.14 ± 0.4	44.06 ± 0.4
m1 = 0.017	44.89 ± 0.4	44.54 ± 0.4	44.18 ± 0.4	44.3 ± 0.4	44.14 ± 0.4	44.26 ± 0.4
